# Test system: gene expression in D04 melanoma cells
# Experiment: RNA-Seq differential expression analysis (DESeq2)
# Assay type: cell-based, human
# Method: Total RNA was isolated using the RNeasy mini Kit (QIAGEN) following the manufacturer's protocol. Quality check for extracted RNA was done using 2100 Bioanalyzer (Agilent Technologies, USA) or Tapestation System (Agilent Technologies, USA). […] For samples used for identification of MAPK-responsive lncRNAs, paired-end, 101-bp sequencing was performed by Centrillion Genomic Services (Centrillion Biosciences, USA) on an Illumina HiSeq 2000. For DE gene analysis of ASO-transfected D04 samples, paired-end, 2×150-bp sequencing was performed by Genewiz (USA) on a Illumina HiSeq.
# Sequence reads were aligned to the human genome (hg19) using TopHat (Version 2.0.11).
# Differential expression (DE) analysis was done using DESeq2. Differentially expressed genes were defined by more than 1.5-fold changes (log 2 >0.58 or <−0.58) in expression with FDR<0.05. GO term analysis was done using DAVID Functional Annotation Clustering analysis.
# To examine the biomolecular changes upon TRASH-inhibition in melanoma, D04 cells were treated with TRASH-ASOs (SEQ ID NO:15) and Control-ASOs and RNA was extracted and used for RNA-Seq. […] These GO terms consisted of genes encoding growth factors, tyrosine kinases, G protein coupled receptor subunits, and collagen subunits. Scatter plot diagram showing differential gene expression after TRASH-ASO treatment compared to Control-ASO treatment. (cut-off for significance was adjusted p-value <0.05). Data was obtained from RNA-Seq of D04 melanoma cells, treatment period was three days. (FIG. 5c)
sequence,measurement,setting,value
"GACTGGAGATAATTAA (gapmer, pattern not given here) [SEQ ID NO: 15, GapmeR ASO targeting AC004540.4 (TRASH), exon region of both isoforms; used for in vitro experiments]",log2FoldChange,44256 (ENSG00000186205),1.274
same,log2FoldChange,44259 (ENSG00000144583),2.095
same,log2FoldChange,A2M (ENSG00000175899),−0.6461
same,log2FoldChange,AADACP1 (ENSG00000240602),1.744
same,log2FoldChange,AAGAB (ENSG00000103591),−0.6248
same,log2FoldChange,AAMDC (ENSG00000087884),−0.6077
same,log2FoldChange,ABCA7 (ENSG00000064687),−0.6185
same,log2FoldChange,AC004817.3 (ENSG00000269927),1.303
same,log2FoldChange,AC004949.1 (ENSG00000283117),−0.6056
same,log2FoldChange,AC005144.1 (ENSG00000283517),1.578
same,log2FoldChange,AC006058.1 (ENSG00000261786),−0.7044
same,log2FoldChange,AC009502.2 (ENSG00000231802),1.847
same,log2FoldChange,AC010735.1 (ENSG00000261379),−0.6617
same,log2FoldChange,AC010735.2 (ENSG00000272622),−0.6927
same,log2FoldChange,AC011944.1 (ENSG00000177699),1.481
same,log2FoldChange,AC022007.1 (ENSG00000206567),−0.6327
same,log2FoldChange,AC022031.2 (ENSG00000267284),−0.6353
same,log2FoldChange,AC048341.1 (ENSG00000257354),−0.6321
same,log2FoldChange,AC073130.1 (ENSG00000237870),1.474
same,log2FoldChange,AC090192.2 (ENSG00000253227),1.561
same,log2FoldChange,AC090204.1 (ENSG00000247134),−0.6895
same,log2FoldChange,AC090505.1 (ENSG00000234805),1.656
same,log2FoldChange,AC099552.1 (ENSG00000217825),2.619
same,log2FoldChange,AC105942.1 (ENSG00000235501),−0.6072
same,log2FoldChange,AC117386.2 (ENSG00000243944),−0.661
same,log2FoldChange,AC131254.1 (ENSG00000248964),2
same,log2FoldChange,AC133785.1 (ENSG00000233221),1.627
same,log2FoldChange,AC135782.1 (ENSG00000256982),1.563
same,log2FoldChange,AC139491.2 (ENSG00000248596),1.322
same,log2FoldChange,AC237221.1 (ENSG00000260653),1.665
same,log2FoldChange,AC245041.1 (ENSG00000273760),1.261
same,log2FoldChange,ACTBL2 (ENSG00000169067),−0.6731
same,log2FoldChange,ACTR3C (ENSG00000106526),−0.7012
same,log2FoldChange,ADCYAP1R1 (ENSG00000078549),2.87
same,log2FoldChange,ADGRA2 (ENSG00000020181),−0.7029
same,log2FoldChange,ADGRB1 (ENSG00000181790),1.472
same,log2FoldChange,ADGRE4P (ENSG00000268758),1.451
same,log2FoldChange,ADPRHL1 (ENSG00000153531),3.706
same,log2FoldChange,ADRB2 (ENSG00000169252),1.354
same,log2FoldChange,AHNAK2 (ENSG00000185567),1.379
same,log2FoldChange,AHR (ENSG00000106546),−0.6391
same,log2FoldChange,AKNAD1 (ENSG00000162641),1.238
same,log2FoldChange,AL161431.1 (ENSG00000275216),1.631
same,log2FoldChange,AL356234.3 (ENSG00000283265),2.668
same,log2FoldChange,AL365181.2 (ENSG00000272068),1.422
same,log2FoldChange,AL390334.1 (ENSG00000258932),−0.6259
same,log2FoldChange,AL512488.1 (ENSG00000230439),1.824
same,log2FoldChange,AL590004.4 (ENSG00000260604),1.853
same,log2FoldChange,ALMS1-IT1 (ENSG00000230002),1.247
same,log2FoldChange,ALOXE3 (ENSG00000179148),4.94
same,log2FoldChange,ALPI (ENSG00000163295),7.153
same,log2FoldChange,ANKH (ENSG00000154122),−0.6414
same,log2FoldChange,ANO2 (ENSG00000047617),2.643
same,log2FoldChange,ANXA8 (ENSG00000265190),1.513
same,log2FoldChange,ANXA8L1 (ENSG00000264230),1.299
same,log2FoldChange,APOA4 (ENSG00000110244),7.547
same,log2FoldChange,APOE (ENSG00000130203),−0.6001
same,log2FoldChange,AQP1 (ENSG00000240583),−0.6784
same,log2FoldChange,ARC (ENSG00000198576),1.257
same,log2FoldChange,ARHGDIB (ENSG00000111348),1.501
same,log2FoldChange,ARSA (ENSG00000100299),−0.6363
same,log2FoldChange,ATG9B (ENSG00000181652),1.674
same,log2FoldChange,ATP2B2 (ENSG00000157087),2.6809
same,log2FoldChange,B3GALT5 (ENSG00000183778),3.38
same,log2FoldChange,B4GALNT3 (ENSG00000139044),−0.6558
same,log2FoldChange,BAALC-AS1 (ENSG00000247081),−0.5946
same,log2FoldChange,BEX5 (ENSG00000184515),1.778
same,log2FoldChange,BHLHB9 (ENSG00000198908),−0.6347
same,log2FoldChange,BIRC7 (ENSG00000101197),1.54
same,log2FoldChange,BVES (ENSG00000112276),−0.7008
same,log2FoldChange,C1orf21 (ENSG00000116667),−0.5945
same,log2FoldChange,C1orf116 (ENSG00000182795),1.382
same,log2FoldChange,C3 (ENSG00000125730),−0.6635
same,log2FoldChange,C5 (ENSG00000106804),−0.69
same,log2FoldChange,C7orf57 (ENSG00000164746),1.917
same,log2FoldChange,C7orf69 (ENSG00000136275),−0.6813
same,log2FoldChange,C10orf55 (ENSG00000222047),2.331
same,log2FoldChange,C10orf90 (ENSG00000154493),−0.626
same,log2FoldChange,C11orf86 (ENSG00000173237),1.233
same,log2FoldChange,C15orf54 (ENSG00000175746),1.489
same,log2FoldChange,C16orf45 (ENSG00000166780),−0.6742
same,log2FoldChange,CACNA1D (ENSG00000157388),−0.6311
same,log2FoldChange,CACNA1H (ENSG00000196557),1.733
same,log2FoldChange,CALB2 (ENSG00000172137),1.839
same,log2FoldChange,CARMIL1 (ENSG00000079691),−0.6828
same,log2FoldChange,CASC9 (ENSG00000249395),−0.6279
same,log2FoldChange,CASTOR3 (ENSG00000239521),−0.6683

# Reference: patent US20250197864A1, “LNCRNA TRANSCRIPTS IN MELANOMAGENESIS” (The Regents of the University of California, priority 2021, published 2025)
